Measurements reported in patent US9556139B2, “6-substituted phenoxychroman carboxylic acid derivatives” (Array BioPharma Inc., priority 2008, dated 2017).
Where a name gives a salt, the structure may show the parent alone. Read-outs that look alike come from different tables or passages of the source.

Biological target: human DP2 (Homo sapiens (Human), UniProt Q9Y5Y4)
Test: DP-2 Binding Inhibition Assay (3H-PGD2 binding to membranes of K562 cells expressing DP2)
Conditions: inhibition of 3H-PGD2 binding
Outline: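 Membranes from K562 stably expressing DP2, incubated 60 min at room temperature with ³H-PGD2 and compound in Tris pH 7.4 buffer with 0.1% BSA, 1% HSA or 4% HSA; filtration read-out. Nonspecific binding: 1 μM unlabeled PGD2 or 5 μM known antagonist. EC50 from 4-parameter logistic fit.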

[1] = read-out: EC50 (nM) 4% HSA, 4% HSA
[2] = read-out: EC50 (Nm) 1% HSA, 1% HSA

human DP2, sequence (Q9Y5Y4 whole entry): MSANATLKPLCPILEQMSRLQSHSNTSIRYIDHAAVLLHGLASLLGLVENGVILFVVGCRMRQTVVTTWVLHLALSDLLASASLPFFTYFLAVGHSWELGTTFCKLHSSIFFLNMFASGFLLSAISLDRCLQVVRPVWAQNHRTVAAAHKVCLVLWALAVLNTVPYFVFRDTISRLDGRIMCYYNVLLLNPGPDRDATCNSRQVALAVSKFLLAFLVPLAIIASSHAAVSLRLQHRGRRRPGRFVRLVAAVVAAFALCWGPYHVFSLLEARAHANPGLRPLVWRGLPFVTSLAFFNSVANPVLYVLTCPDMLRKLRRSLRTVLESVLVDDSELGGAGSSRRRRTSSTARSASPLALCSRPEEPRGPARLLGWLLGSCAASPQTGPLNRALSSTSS

Row | Structure (SMILES) | EC50 [1] | further results
1 | COc1cc(CCNC(=O)c2ccc(Oc3cc4c(cc3C#N)C(C(=O)O)CCO4)cc2)ccc1Cl (stereo not shown) [Example 133, 7-(4-(4-Chloro-3-methoxyphenethylcarbamoyl)phenoxy)-6-cyanochroman-4-carboxylic acid] | 625 nM | –
2 | O=C(NCCc1ccccc1C(F)(F)F)c1ccc(Oc2cc3c(cc2Cl)C(C(=O)O)CCO3)cc1 (stereo not shown) [Example 152, Sodium 6-chloro-7-(4-(2-(trifluoromethyl)phenethylcarbamoyl)phenoxy)chroman-4-carboxylate] | 160 nM | –
3 | O=C(NCC/C=C\c1ccc(Cl)cc1Cl)c1ccc(Oc2cc3c(cc2Cl)C(C(=O)O)CCO3)cc1 (stereo not shown) [Example 18, Sodium (Z)-6-chloro-7-(4-(4-(2,4-dichlorophenyl)but-3-enylcarbamoyl)phenoxy)chroman-4-carboxylate] | 502 nM | –
4 | CC(C)Oc1cc(Cl)ccc1CCNC(=O)c1ccc(Oc2cc3c(cc2Cl)C(C(=O)O)CCO3)cc1 (stereo not shown) [Example 202, sodium 6-chloro-7-(4-(4-chloro-2-isopropoxy-phenethylcarbamoyl)phenoxy)chroman-4-carboxylate] | 71.6 nM | –
5 | O=C(NCCc1ccccc1OC(F)(F)F)c1ccc(Oc2cc3c(cc2Cl)C(C(=O)O)CCO3)cc1 (stereo not shown) [Example 64, Sodium 6-chloro-7-(4-(2-(trifluoromethoxy)phenethylcarbamoyl)phenoxy)chroman-4-carboxylate] | 153 nM | –
6 | COc1cccc(CCNC(=O)c2ccc(Oc3cc4c(cc3Cl)C(C(=O)O)CCO4)cc2)c1OC (stereo not shown) [Example 89, Sodium 6-chloro-7-(4-(2,3-dimethoxyphenethylcarbamoyl)phenoxy)chroman-4-carboxylate] | 146 nM | –
7 | CCOc1cc(OC)ccc1CCNC(=O)c1ccc(Oc2cc3c(cc2Cl)C(C(=O)O)CCO3)cc1 (stereo not shown) [Example 228, 6-chloro-7-(4-(2-ethoxy-4-methoxyphenethylcarbamoyl)phenoxy)chroman-4-carboxylic acid] | 88.9 nM | –
8 | O=C(NCCc1ccc(Cl)cc1O)c1ccc(Oc2cc3c(cc2Cl)C(C(=O)O)CCO3)cc1 (stereo not shown) [Example 233, 6-Chloro-7-(4-(4-chloro-2-hydroxyphenethylcarbamoyl)phenoxy)chroman-4-carboxylic acid] | – | EC50 (EC50 (nM) 0.1% BSA, 0.1% BSA): 11.1 nM
9 | Cc1ccc(C2CCCC(NC(=O)c3ccc(Oc4cc5c(cc4Cl)C(C(=O)O)CCO5)cc3)C2)cc1 (stereo not shown) [Example 160, 6-Chloro-7-(4-(3-(4-methylphenyl)cyclohexylcarbamoyl)phenoxy)chroman-4-carboxylic acid] | 350 nM | –
10 | O=C(NCCc1ccc(C2CC2)cc1)c1ccc(Oc2cc3c(cc2Cl)C(C(=O)O)CCO3)cc1 (stereo not shown) [Example 24, Sodium 6-chloro-7-(4-(4-cyclopropylphenethylcarbamoyl)phenoxy)chroman-4-carboxylate] | 482 nM | –
11 | N#Cc1cc2c(cc1Oc1ccc(C(=O)Nc3ccc4ccccc4c3)cc1)OCCC2C(=O)O (stereo not shown) [Example 76, 6-Cyano-7-(4-(naphthalen-2-ylcarbamoyl)phenoxy)chroman-4-carboxylic acid] | – | EC50 [2]: 6.7 nM
12 | O=C(NCCc1ccc(Br)cc1Cl)c1ccc(Oc2cc3c(cc2Cl)C(C(=O)O)CCO3)cc1 (stereo not shown) [Example 28, Sodium 7-(4-(4-bromo-2-chlorophenethylcarbamoyl)phenoxy)-6-chlorochroman-4-carboxylate] | 123 nM | –
13 | O=C(NCCCCc1ccccc1Cl)c1ccc(Oc2cc3c(cc2Cl)C(C(=O)O)CCO3)cc1 (stereo not shown) [Example 17, Sodium 6-chloro-7-(4-(4-(2-chlorophenyl)butylcarbamoyl)phenoxy)chroman-4-carboxylate] | 395 nM | –
14 | O=C(NCCc1ccc(Cl)cc1)c1ccc(Oc2cc(Cl)c3c(c2)OCCC3C(=O)O)cc1 (stereo not shown) [Example 218, 5-chloro-7-(4-(4-chlorophenethylcarbamoyl)phenoxy)chroman-4-carboxylic acid] | – | EC50 [2]: 144 nM
15 | O=C(NCCc1ccccc1-c1ccccc1Cl)c1ccc(Oc2cc3c(cc2Cl)C(C(=O)O)CCO3)cc1 (stereo not shown) [Example 96, Sodium 6-chloro-7-(4-(2-(2′-chlorobiphenyl-2-yl)ethylcarbamoyl)phenoxy)chroman-4-carboxylate] | 40.2 nM | –
16 | O=C(NCCc1ccc(O)cc1)c1ccc(Oc2cc3c(cc2Cl)C(C(=O)O)CCO3)cc1 (stereo not shown) [Example 84, Sodium 6-chloro-7-(4-(4-hydroxyphenethylcarbamoyl)phenoxy)chroman-4-carboxylate] | 1380 nM | –
17 | CC(C)(C)c1ccc(CCNC(=O)c2ccc(Oc3cc4c(cc3C#N)C(C(=O)O)CCO4)cc2)cc1 (stereo not shown) [Example 57, 7-(4-(4-tert-Butylphenethylcarbamoyl)phenoxy)-6-cyanochroman-4-carboxylic acid] | – | EC50 [2]: 18.9 nM
18 | O=C(NCCc1c(Cl)cccc1Cl)c1ccc(Oc2cc3c(cc2Cl)C(C(=O)O)CCO3)cc1 (stereo not shown) [Example 80, Sodium 6-chloro-7-(4-(2,6-dichlorophenethylcarbamoyl)phenoxy)chroman-4-carboxylate] | 165 nM | –

Row | Structure (SMILES) | EC50 [1] | further results
19 | N#Cc1cc2c(cc1Oc1ccc(C(=O)Nc3ccc(-c4ccc(Cl)cc4)cc3)cc1)OCCC2C(=O)O (stereo not shown) [Example 69, 7-(4-(4′-Chlorobiphenyl-4-ylcarbamoyl)phenoxy)-6-cyanochroman-4-carboxylic acid] | 240 nM | –
20 | CSc1cccc(C2CCC(NC(=O)c3ccc(Oc4cc5c(cc4Cl)C(C(=O)O)CCO5)cc3)C2)c1 (stereo not shown) [Example 172, Sodium 6-chloro-7-(4-(3-(3-(methylthio)phenyl)cyclopentylcarbamoyl)phenoxy)chroman-4-carboxylate] | 282 nM | –
21 | O=C(NC1CCN(c2cccc(Cl)c2)C1)c1ccc(Oc2cc3c(cc2Cl)C(C(=O)O)CCO3)cc1 (stereo not shown) [Example 119, Sodium 6-chloro-7-(4-(1-(3-chlorophenyl)pyrrolidin-3-ylcarbamoyl)phenoxy)chroman-4-carboxylate] | 206 nM | –
22 | COc1cccc(CCNC(=O)c2ccc(Oc3cc4c(cc3Cl)C(C(=O)O)CCO4)cc2)c1 (stereo not shown) [Example 143, Sodium 6-chloro-7-(4-(3-methoxyphenethylcarbamoyl)phenoxy)chroman-4-carboxylate] | 1010 nM | –
23 | N#Cc1cc2c(cc1Oc1ccc(C(=O)Nc3ccc4c(c3)CNCC4)cc1)OCCC2C(=O)O (stereo not shown) [Example 45, 6-Cyano-7-(4-(1,2,3,4-tetrahydroisoquinolin-7-ylcarbamoyl)phenoxy)chroman-4-carboxylic acid hydrochloride] | – | EC50 [2]: 1370 nM
24 | O=C(NCCc1ccccc1)c1ccc(Oc2cc3c(cc2Cl)C(C(=O)O)CCO3)cc1 (stereo not shown) [Example 12, Sodium 6-chloro-7-(4-(phenethylcarbamoyl)phenoxy)chroman-4-carboxylate] | – | EC50 (EC50 (nM) 4% HSA, 4% HSA): 794 nM
25 | O=C(NC1CN(c2cccc(C(F)(F)F)c2)C1)c1ccc(Oc2cc3c(cc2Cl)C(C(=O)O)CCO3)cc1 (stereo not shown) [Example 121, Sodium 6-chloro-7-(4-(1-(3-(trifluoromethyl)phenyl)azetidin-3-ylcarbamoyl)phenoxy)chroman-4-carboxylate] | 4320 nM | –
26 | CC(C)(C)CCNC(=O)c1ccc(Oc2cc3c(cc2Cl)C(C(=O)O)CCO3)cc1 (stereo not shown) [Example 179, Sodium 6-chloro-7-(4-(3,3-dimethylbutylcarbamoyl)phenoxy)chroman-4-carboxylate] | 1110 nM | –
27 | O=C(NCCc1ccc(Cl)cc1Cl)c1ccc(Oc2cc3c(cc2C2CC2)C(C(=O)O)CCO3)cc1 (stereo not shown) [Example 42, Sodium 6-cyclopropyl-7-(4-(2,4-dichlorophenethylcarbamoyl)phenoxy)chroman-4-carboxylate] | 73.8 nM | –
28 | O=C(NCCc1ccc(Cl)cc1)c1ccc(Oc2cc3c(cc2Cl)C(C(=O)O)CCO3)c([N+](=O)[O-])c1 (stereo not shown) [Example 9, 6-Chloro-7-(4-(4-chlorophenethylcarbamoyl)-2-nitrophenoxy)chroman-4-carboxylic acid] | – | EC50 [2]: 203 nM
29 | CCOc1ccc(CCNC(=O)c2ccc(Oc3cc4c(cc3Cl)C(C(=O)O)CCO4)cc2)c(OCC)c1 (stereo not shown) [Example 225, 6-chloro-7-(4-(2,4-diethoxyphenethylcarbamoyl)phenoxy)chroman-4-carboxylic acid] | 56 nM | –
30 | COc1ccc(OC)c(CCNC(=O)c2ccc(Oc3cc4c(cc3Cl)C(C(=O)O)CCO4)cc2)c1 (stereo not shown) [Example 88, Sodium 6-chloro-7-(4-(2,5-dimethoxyphenethylcarbamoyl)phenoxy)chroman-4-carboxylate] | 203 nM | –
31 | Cc1cc(Cl)ccc1CCNC(=O)c1ccc(Oc2cc3c(cc2Cl)C(C(=O)O)CCO3)cc1 (stereo not shown) [Example 27, Sodium 6-chloro-7-(4-(4-chloro-2-methylphenethylcarbamoyl)phenoxy)chroman-4-carboxylate] | 216 nM | –
32 | COc1cc(Cl)c(CCNC(=O)c2ccc(Oc3cc4c(cc3Cl)C(C(=O)O)CCO4)cc2)c(OC)c1 (stereo not shown) [Example 226, 6-chloro-7-(4-(2-chloro-4,6-dimethoxyphenethylcarbamoyl)phenoxy)chroman-4-carboxylic acid] | 88.5 nM | –
33 | N#Cc1cc2c(cc1Oc1ccc(C(=O)NC3CC3c3ccc(Cl)cc3)cc1)OCCC2C(=O)O (stereo not shown) [Example 51, 7-(4-((2-(4-Chlorophenyl)cyclopropyl)carbamoyl)phenoxy)-6-cyano-3,4-dihydro-2H-chromene-4-carboxylic acid] | 14.8 nM | EC50 [2]: 12.1 nM
34 | O=C(NCCc1ccc(F)cc1)c1ccc(Oc2cc3c(cc2Cl)C(C(=O)O)CCO3)cc1 (stereo not shown) [Example 85, Sodium 6-chloro-7-(4-(4-fluorophenethylcarbamoyl)phenoxy)chroman-4-carboxylate] | 344 nM | –
35 | COc1ccc(CCNC(=O)c2ccc(Oc3cc4c(cc3Cl)C(C(=O)O)CCO4)cc2)cc1OC (stereo not shown) [Example 141, Sodium 6-chloro-7-(4-(3,4-dimethoxyphenethylcarbamoyl)phenoxy)chroman-4-carboxylate] | 1000 nM | –
36 | O=C(NCCc1ccc(Cl)cc1-c1ccccc1Cl)c1ccc(Oc2cc3c(cc2Cl)C(C(=O)O)CCO3)cc1 (stereo not shown) [Example 33, Sodium 6-chloro-7-(4-(2-(2′,5-dichlorobiphenyl-2-yl)ethylcarbamoyl)phenoxy)chroman-4-carboxylate] | 126 nM | –
